Laboratory results reported in patent publication US8415469B2, “Compounds and methods for kinase modulation, and indications therefor” (Plexxikon Inc., priority 2005, dated 2013).

Columns and labels:
Assay type in all cases: biochemical
FGFR1 = molecular target: T1, FGFR1 (Homo sapiens, UniProt P11362, C488A/C584S); assay: AlphaScreen kinase assay, FGFR1; settings: read-out: IC50, activity toward kinase FGFR
T1 construct: P1351.pET N6 BI-PTP FGFR A458-E765-X C488A, C584S; made in house; host or cells: E. coli (PTP1B co-expressed)
T1 sequence (P11362 458-765 C488A/C584S): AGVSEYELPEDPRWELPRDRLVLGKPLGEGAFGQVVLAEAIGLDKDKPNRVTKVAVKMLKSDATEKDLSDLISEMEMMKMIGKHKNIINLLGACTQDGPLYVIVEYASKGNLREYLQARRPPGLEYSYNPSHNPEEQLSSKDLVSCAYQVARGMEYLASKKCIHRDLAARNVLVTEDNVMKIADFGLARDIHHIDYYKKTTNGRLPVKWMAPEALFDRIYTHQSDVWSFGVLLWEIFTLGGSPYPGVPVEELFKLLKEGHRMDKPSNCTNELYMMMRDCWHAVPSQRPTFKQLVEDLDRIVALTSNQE

B-Raf = molecular target: T2, B-Raf (Homo sapiens, UniProt P15056); assay: AlphaScreen kinase assay, B-Raf; settings: read-out: IC50, activity toward kinase B-Raf
T2 construct: purchased Upstate Biotechnology
T2 sequence (P15056 whole entry): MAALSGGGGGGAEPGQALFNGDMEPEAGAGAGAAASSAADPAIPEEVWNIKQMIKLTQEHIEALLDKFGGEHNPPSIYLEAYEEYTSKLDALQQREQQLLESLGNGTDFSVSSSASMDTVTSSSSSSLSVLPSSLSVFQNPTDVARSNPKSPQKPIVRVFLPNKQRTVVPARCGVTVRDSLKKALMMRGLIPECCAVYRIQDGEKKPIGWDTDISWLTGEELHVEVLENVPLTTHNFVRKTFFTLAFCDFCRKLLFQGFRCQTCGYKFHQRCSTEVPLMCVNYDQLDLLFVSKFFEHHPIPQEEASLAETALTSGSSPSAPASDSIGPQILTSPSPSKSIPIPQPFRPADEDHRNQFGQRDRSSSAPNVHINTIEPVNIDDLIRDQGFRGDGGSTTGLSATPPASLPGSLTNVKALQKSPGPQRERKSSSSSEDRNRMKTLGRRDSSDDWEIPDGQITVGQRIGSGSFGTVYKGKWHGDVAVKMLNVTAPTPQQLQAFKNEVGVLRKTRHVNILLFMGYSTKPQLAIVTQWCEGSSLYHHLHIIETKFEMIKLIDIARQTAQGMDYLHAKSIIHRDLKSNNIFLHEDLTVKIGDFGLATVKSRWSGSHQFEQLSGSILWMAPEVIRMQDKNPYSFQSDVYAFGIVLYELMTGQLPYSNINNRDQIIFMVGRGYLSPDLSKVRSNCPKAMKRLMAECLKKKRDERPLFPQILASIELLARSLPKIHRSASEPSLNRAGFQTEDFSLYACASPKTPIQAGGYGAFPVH

c-Raf-1 = molecular target: T3, c-Raf-1 (Homo sapiens, UniProt P04049); assay: AlphaScreen kinase assay, c-Raf-1; settings: read-out: IC50, activity toward kinase c-Raf-1
T3 construct: purchased Upstate Biotechnology
T3 sequence (P04049 whole entry): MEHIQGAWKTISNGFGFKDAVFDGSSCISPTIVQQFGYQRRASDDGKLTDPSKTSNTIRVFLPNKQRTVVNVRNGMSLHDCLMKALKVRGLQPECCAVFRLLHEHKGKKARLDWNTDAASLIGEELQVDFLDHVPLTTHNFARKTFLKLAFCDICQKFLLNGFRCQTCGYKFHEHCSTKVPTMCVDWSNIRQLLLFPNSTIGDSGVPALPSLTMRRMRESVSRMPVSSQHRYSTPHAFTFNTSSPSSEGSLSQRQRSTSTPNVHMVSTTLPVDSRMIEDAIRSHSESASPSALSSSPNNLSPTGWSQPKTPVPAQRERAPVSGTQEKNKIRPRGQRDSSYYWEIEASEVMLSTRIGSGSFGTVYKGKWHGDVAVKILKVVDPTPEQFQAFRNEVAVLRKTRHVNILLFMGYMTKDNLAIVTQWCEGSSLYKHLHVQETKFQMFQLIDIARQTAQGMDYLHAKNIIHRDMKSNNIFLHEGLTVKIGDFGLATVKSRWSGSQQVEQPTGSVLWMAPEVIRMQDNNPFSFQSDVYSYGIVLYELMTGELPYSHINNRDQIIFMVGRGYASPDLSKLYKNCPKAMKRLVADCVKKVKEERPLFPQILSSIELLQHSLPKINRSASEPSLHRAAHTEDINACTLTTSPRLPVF

Kit = molecular target: T4, Kit (Homo sapiens, UniProt P10721); assay: AlphaScreen kinase assay, Kit; settings: read-out: IC50, activity toward kinase Kit
T4 construct: P1332.N6 BI PTP KIT M552-K948-X COD; His6 (N); made in house; host or cells: E. coli (PTP1B co-expressed)
T4 sequence (P10721 with tags, fused parts or gaps): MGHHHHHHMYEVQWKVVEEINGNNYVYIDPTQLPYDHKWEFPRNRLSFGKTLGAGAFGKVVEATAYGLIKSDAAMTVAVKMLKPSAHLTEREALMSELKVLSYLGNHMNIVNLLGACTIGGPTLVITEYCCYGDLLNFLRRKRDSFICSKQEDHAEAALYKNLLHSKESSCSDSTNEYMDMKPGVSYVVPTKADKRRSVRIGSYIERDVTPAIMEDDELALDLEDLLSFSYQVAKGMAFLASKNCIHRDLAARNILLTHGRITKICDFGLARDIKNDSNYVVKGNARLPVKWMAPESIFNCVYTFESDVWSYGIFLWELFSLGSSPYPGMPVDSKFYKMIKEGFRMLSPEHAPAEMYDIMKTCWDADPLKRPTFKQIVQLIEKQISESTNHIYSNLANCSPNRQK

Pyk2 = molecular target: T5, Pyk2 (Homo sapiens, UniProt Q14289); assay: AlphaScreen kinase assay, Pyk2; settings: read-out: IC50, activity toward kinase Pyk2
T5 construct: purchased Upstate Biotechnology
T5 sequence (Q14289 whole entry): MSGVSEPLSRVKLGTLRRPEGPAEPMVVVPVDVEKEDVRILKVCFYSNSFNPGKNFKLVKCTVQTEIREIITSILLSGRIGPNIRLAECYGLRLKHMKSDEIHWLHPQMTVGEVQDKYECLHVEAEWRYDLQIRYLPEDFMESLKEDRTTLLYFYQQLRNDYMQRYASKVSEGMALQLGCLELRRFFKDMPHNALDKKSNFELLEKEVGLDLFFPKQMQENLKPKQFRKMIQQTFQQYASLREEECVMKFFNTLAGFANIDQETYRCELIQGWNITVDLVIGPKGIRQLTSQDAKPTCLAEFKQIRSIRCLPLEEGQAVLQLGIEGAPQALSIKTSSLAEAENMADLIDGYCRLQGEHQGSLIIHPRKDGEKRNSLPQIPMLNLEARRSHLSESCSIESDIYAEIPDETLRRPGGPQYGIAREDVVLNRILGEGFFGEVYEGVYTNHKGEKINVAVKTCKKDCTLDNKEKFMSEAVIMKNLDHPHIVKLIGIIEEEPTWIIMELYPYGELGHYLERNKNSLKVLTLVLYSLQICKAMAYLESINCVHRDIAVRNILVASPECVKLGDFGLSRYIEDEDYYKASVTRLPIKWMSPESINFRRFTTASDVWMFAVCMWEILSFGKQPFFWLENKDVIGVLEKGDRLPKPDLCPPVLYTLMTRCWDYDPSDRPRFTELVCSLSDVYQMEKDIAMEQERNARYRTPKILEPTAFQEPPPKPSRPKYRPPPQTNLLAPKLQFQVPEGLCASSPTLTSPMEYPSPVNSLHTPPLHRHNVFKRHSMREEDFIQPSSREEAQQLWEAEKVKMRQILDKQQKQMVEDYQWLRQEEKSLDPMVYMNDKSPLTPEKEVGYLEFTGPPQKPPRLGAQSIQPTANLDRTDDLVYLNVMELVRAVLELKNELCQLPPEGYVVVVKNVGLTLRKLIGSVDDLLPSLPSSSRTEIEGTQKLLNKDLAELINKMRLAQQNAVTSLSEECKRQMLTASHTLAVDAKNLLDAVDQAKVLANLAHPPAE

Src = molecular target: T6, Src (Homo sapiens, UniProt P12931); assay: AlphaScreen kinase assay, Src; settings: read-out: IC50, activity toward kinase Src
T6 construct: P1144. pET-N6 BI-PTP SRC V86-L536-X; made in house

Fms = molecular target: T7, Fms (Homo sapiens, UniProt P07333); assay: AlphaScreen kinase assay, Fms; settings: read-out: IC50, activity toward kinase Fms
T7 construct: purchased Upstate Biotechnology
T7 sequence (P07333 20-972): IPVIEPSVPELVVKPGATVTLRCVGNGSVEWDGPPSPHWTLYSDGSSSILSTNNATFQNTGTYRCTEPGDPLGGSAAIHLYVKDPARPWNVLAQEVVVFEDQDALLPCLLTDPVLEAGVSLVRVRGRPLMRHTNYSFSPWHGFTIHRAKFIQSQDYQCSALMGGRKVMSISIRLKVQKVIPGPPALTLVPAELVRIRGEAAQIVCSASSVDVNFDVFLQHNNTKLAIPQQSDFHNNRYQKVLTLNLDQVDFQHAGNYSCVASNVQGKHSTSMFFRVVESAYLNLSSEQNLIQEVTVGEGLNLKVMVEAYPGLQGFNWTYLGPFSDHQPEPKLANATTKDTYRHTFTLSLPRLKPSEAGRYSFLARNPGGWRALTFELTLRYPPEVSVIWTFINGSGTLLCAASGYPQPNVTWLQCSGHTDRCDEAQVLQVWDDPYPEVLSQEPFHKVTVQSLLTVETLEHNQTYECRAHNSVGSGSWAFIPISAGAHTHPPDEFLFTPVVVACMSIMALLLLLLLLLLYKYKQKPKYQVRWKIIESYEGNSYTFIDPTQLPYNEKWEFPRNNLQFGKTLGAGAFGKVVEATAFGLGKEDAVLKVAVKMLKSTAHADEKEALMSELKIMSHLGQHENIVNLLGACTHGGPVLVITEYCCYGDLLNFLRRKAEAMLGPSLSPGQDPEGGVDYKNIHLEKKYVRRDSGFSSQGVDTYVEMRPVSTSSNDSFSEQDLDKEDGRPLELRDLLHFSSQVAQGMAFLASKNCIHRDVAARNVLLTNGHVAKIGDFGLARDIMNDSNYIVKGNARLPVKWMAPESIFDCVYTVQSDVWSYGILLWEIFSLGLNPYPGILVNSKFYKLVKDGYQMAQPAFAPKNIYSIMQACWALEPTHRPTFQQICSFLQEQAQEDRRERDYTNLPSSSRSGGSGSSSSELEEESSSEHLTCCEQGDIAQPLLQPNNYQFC

B-Raf V600E = molecular target: T8, B-Raf V600E (Homo sapiens, UniProt P15056, V600E); assay: AlphaScreen kinase assay, B-Raf V600E; settings: read-out: IC50, activity toward kinase B-Raf V600E
T8 construct: P4254. pFastBacBD-CDC37 BRAF D437-K722-X, V600E; His6 with pFastBac HT leader (TEV site) (N); made in house; host or cells: Sf9 (baculovirus; chaperone CDC37 co-expressed)
T8 sequence (P15056 with tags, fused parts or gaps V600E): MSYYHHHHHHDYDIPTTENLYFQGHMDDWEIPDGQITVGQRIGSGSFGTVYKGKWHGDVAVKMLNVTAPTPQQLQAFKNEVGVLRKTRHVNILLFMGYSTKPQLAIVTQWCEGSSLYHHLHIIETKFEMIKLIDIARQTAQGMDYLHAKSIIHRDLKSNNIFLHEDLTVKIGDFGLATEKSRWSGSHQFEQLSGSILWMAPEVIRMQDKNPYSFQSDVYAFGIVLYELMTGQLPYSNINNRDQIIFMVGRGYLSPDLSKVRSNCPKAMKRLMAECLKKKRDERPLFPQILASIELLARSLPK

Fak = molecular target: T9, Fak (Homo sapiens, UniProt Q05397); assay: AlphaScreen kinase assay, Fak; settings: read-out: IC50, activity toward kinase Fak
T9 construct: P1358.pFastBacHtb FAK S411-Q686-X; His6 with pFastBacHTb leader (TEV site) (N); made in house; host or cells: Sf9 (baculovirus)
T9 sequence (Q05397 411-686): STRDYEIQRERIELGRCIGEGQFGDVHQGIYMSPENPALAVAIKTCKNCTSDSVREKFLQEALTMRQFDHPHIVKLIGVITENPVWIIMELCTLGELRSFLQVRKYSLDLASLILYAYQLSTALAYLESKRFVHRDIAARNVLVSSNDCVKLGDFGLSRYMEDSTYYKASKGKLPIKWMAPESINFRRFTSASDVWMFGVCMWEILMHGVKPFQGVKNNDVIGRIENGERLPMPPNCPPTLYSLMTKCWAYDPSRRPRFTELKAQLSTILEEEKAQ

Flt1 = molecular target: T10, Flt1 (Homo sapiens, UniProt P17948); assay: AlphaScreen kinase assay, Flt1; settings: read-out: IC50, activity toward kinase Flt1
T10 construct: P1826.pETN6 BI-PTP FLT1 M799-D1165-X WT; His6 (N); made in house; host or cells: E. coli (PTP1B co-expressed)
T10 sequence (P17948 with tags, fused parts or gaps): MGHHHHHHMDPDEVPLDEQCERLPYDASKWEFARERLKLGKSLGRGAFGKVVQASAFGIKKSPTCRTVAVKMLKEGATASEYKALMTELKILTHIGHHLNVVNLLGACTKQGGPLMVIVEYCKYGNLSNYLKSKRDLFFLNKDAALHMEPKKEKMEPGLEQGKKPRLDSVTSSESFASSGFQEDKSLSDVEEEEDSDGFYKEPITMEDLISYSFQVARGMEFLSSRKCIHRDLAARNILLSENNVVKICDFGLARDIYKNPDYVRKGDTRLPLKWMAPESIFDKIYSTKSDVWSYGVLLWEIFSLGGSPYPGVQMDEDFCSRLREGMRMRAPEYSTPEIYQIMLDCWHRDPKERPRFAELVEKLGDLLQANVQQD
From the text: AlphaScreen assay was used to screen additional kinases. The assay is similarly dependent on the phosphorylation of a peptide substrate. In this assay, an antibody that recognizes phosphorylated substrate is bound to an acceptor bead. The peptide substrate is attached to biotin, which binds to a donor head that contains streptavidin. Thus phosphorylated substrate is bound by antibody and streptavidin, bringing the donor and acceptor heads into close proximity when kinase is not inhibited. The donor produces singlet oxygen which results in emission from the acceptor when they are in close proximity. Conversely, when kinase is inhibited, the donor and acceptor beads are not associated and the emission from the acceptor is reduced.
AlphaScreen assays were done using compounds dissolved in DMSO to a concentration of 20 mM. The compounds were diluted accordingly to the desired final concentrations in each sample well, using 1:3 serial dilution for a total of 8 concentration points. Plates were prepared such that each kinase reaction is 20 μl in 1× kinase buffer, 5% DMSO and 10 μM ATP. After incubation of the kinase reaction for 1 hour at room temperature, 5 μl of donor beads in stop buffer (50 mM EDTA in 1× kinase buffer) was added, the sample was mixed and incubated for 20 minutes at room temperature before adding 5 μl of acceptor beads in stop buffer. The samples were incubated for 60 minutes at room temperature and the signal per well was read on AlphaQuest reader.

Jnk1 = molecular target: T11, Jnk1 (Homo sapiens, UniProt P45983); assay: AlphaScreen kinase assay, Jnk1; settings: read-out: IC50, activity toward kinase Jnk1
T11 construct: purchased Upstate Biotechnology

Measured: IC50

CCCS(=O)(=O)Nc1ccc(F)c(Cc2c[nH]c3ncc(Nc4ccccc4)cc23)c1F [Compound P-0818, Propane-1-sulfonic acid [2,4-difluoro-3-(5-phenylamino-1H-pyrrolo[2,3-b]pyridin-3-ylmethyl)-phenyl]-amide]
not listed: Flt1 | Jnk1
≤ 10 µM: all other assays above

CN(C)S(=O)(=O)Nc1ccc(F)c(C(=O)c2c[nH]c3ncc(-c4cccnc4)cc23)c1F [Compound P-0837, Dimethylamine-1-sulfonic acid [3-(5-pyridin-3-yl-1H-pyrrolo[2,3-b]pyridine-3-carbonyl)-2,4-difluoro-phenyl]-amide]
not listed: Flt1 | Jnk1
≤ 10 µM: all other assays above

CC(C)S(=O)(=O)Nc1ccc(F)c(Cc2c[nH]c3ncc(Br)cc23)c1F [Compound P-0867, Propane-2-sulfonic acid [3-(5-bromo-1H-pyrrolo[2,3-b]pyridin-3-ylmethyl)-2,4-difluoro-phenyl]-amide]
not listed: Src | Flt1 | Jnk1
≤ 10 µM: all other assays above

CCCS(=O)(=O)Nc1ccc(F)c(Cc2c[nH]c3ncc(Br)cc23)c1F [Compound P-0910, Propane-1-sulfonic acid [3-(5-bromo-1H-pyrrolo[2,3-b]pyridin-3-ylmethyl)-2,4-difluoro-phenyl]-amide]
not listed: Fms | Flt1 | Jnk1
≤ 10 µM: all other assays above

CCCS(=O)(=O)Nc1ccc(F)c(Cc2c[nH]c3ncc(-c4ccccc4)cc23)c1F [Compound P-0911, Propane-1-sulfonic acid [2,4-difluoro-3-(5-phenyl-1H-pyrrolo[2,3-b]pyridin-3-ylmethyl)-phenyl]-amide]
not listed: Src | Flt1 | Jnk1
≤ 10 µM: all other assays above

CCCS(=O)(=O)Nc1ccc(F)c(Cc2c[nH]c3ncc(OC)cc23)c1F [Compound P-1316]
not listed: B-Raf | Flt1 | Jnk1
≤ 10 µM: all other assays above

CCCC(=O)Nc1ccc(F)c(C(=O)c2c[nH]c3ncc(-c4cccc(C(N)=O)c4)cc23)c1F [Compound P-1365]
not listed: Src
≤ 10 µM: all other assays above
